Results from patent US20210070748A1, “INHIBITORS OF BRUTONS TYROSINE KINASE” (Pharmacyclics LLC, priority 2015, published 2021).

How the values were obtained:
JAK3 = biological target: T1, JAK3 (Homo sapiens, UniProt P52333); assay: Inhibition of a panel of kinases, in vitro HotSpot kinase assay: JAK3; assay type: biochemical; conditions: D-compounds panel data; 1 μM ATP; read-out: IC50 JAK3
T1 sequence (P52333 1-1124): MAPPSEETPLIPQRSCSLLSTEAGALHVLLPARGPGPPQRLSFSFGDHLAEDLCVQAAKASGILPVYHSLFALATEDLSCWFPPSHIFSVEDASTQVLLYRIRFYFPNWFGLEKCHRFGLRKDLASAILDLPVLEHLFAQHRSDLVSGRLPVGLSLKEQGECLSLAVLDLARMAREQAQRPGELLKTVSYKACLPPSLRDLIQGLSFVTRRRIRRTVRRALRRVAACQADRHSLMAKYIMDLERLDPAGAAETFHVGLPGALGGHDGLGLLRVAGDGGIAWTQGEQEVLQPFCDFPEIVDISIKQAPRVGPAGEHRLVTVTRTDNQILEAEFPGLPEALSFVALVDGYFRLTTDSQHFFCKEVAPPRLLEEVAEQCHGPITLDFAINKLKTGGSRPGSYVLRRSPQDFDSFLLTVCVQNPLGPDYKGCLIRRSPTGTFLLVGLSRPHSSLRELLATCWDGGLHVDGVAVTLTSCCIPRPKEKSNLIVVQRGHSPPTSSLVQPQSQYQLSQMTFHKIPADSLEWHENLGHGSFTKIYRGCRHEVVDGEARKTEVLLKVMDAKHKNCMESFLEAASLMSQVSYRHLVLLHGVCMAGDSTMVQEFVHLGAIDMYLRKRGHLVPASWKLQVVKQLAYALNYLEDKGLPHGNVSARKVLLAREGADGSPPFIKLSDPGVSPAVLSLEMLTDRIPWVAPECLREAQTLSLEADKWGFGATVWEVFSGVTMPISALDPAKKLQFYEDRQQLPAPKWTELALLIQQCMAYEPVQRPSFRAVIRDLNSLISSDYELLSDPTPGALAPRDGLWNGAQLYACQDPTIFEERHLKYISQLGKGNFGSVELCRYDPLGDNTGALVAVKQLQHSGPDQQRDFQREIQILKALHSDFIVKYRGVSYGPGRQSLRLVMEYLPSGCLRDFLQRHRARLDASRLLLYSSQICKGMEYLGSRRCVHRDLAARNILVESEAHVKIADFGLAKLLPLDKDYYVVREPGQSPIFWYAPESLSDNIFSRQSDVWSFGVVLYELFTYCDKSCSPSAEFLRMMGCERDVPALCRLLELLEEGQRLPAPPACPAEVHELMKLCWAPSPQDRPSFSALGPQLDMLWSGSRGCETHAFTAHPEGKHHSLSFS

EGFR = EGFR (Homo sapiens, UniProt P00533); assay: Inhibition of a panel of kinases, in vitro HotSpot kinase assay: EGFR; assay type: biochemical; conditions: D-compounds panel data; 1 μM ATP
Chain of EGFR (P00533 25-1210): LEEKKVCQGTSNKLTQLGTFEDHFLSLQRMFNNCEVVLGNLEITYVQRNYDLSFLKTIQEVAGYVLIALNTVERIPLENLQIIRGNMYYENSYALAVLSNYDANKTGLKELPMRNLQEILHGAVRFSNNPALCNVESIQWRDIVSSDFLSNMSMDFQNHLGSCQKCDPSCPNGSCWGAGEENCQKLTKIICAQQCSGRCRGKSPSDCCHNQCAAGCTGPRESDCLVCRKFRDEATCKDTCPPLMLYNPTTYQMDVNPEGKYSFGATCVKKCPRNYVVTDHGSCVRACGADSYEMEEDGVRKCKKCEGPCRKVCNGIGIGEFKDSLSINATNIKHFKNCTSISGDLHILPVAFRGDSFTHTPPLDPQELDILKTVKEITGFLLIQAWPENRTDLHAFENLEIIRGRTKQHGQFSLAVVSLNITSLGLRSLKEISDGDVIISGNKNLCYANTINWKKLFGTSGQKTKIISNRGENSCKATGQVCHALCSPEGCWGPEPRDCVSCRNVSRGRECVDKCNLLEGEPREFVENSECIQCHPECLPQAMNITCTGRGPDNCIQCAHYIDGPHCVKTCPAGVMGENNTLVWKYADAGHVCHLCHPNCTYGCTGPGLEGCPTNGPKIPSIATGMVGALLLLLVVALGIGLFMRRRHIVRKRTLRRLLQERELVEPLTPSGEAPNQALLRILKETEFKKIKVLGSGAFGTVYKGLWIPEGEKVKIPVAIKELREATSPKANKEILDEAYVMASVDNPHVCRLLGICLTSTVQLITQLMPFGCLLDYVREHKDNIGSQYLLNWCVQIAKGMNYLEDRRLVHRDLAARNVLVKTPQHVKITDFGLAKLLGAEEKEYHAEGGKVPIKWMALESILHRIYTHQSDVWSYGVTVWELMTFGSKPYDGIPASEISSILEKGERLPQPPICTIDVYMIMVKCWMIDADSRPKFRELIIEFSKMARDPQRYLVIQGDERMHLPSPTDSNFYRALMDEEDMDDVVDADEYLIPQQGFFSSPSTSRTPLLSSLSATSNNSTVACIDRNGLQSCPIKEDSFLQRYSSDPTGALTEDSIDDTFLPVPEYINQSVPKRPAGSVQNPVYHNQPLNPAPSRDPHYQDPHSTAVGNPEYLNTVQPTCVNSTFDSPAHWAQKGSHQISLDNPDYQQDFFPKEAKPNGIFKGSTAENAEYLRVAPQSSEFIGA
Procedure: The degree of inhibition of a panel of kinases is determined using the in vitro HotSpot kinase assay (purified enzymes, ^33P-ATP, an appropriate substrate and 1 μM ATP).

SMILES	IC50 (JAK3) [nM]	IC50 (EGFR) [nM]
C[C@@H]1[C@H](NC(=O)c2cc(C(C)(C)C)n[nH]2)CCCN1c1cnc(C(N)=O)c(Nc2cnn(C)c2)n1 [Example D-244, 5-[(2R,3R)-3-(3-tert-butyl-1H-pyrazole-5-amido)-2-methylpiperidin-1-yl]-3-[(1-methyl-1H-pyrazol-4-yl)amino]pyrazine-2-carboxamide]	100 to 1000	1000 to 10000
C[C@@H]1[C@H](NC(=O)c2ccc(C3CC3)c(O)c2)CCCN1c1cnc(C(N)=O)c(Nc2cnn(C)c2)n1 [Example D-245, 5-[(2R,3R)-3-(4-cyclopropyl-3-hydroxybenzamido)-2-methylpiperidin-1-yl]-3-[(1-methyl-1H-pyrazol-4-yl)amino]pyrazine-2-carboxamide]	100 to 1000	1000 to 10000
Cc1cc2cc(C(=O)N[C@@H]3CCCN(c4cnc(C(N)=O)c(Nc5cnn(C)c5)n4)[C@@H]3C)ccc2o1 [Example D-246, 3-[(1-methyl-1H-pyrazol-4-yl)amino]-5-[(2R,3R)-2-methyl-3-(2-methyl-1-benzofuran-5-amido)piperidin-1-yl]pyrazine-2-carboxamide]	1000 to 10000	1000 to 10000
C[C@@H]1[C@H](NC(=O)c2cc(C(C)(C)C)on2)CCCN1c1cnc(C(N)=O)c(Nc2cnn(C)c2)n1 [Example D-247, 5-[(2R,3R)-3-(5-tert-butyl-1,2-oxazole-3-amido)-2-methylpiperidin-1-yl]-3-[(1-methyl-1H-pyrazol-4-yl)amino]pyrazine-2-carboxamide]	1000 to 10000	1000 to 10000
COCCN(C)c1ccc(C(=O)N[C@@H]2CCCN(c3cnc(C(N)=O)c(Nc4cnn(C)c4)n3)[C@@H]2C)cc1 [Example D-248, 5-[(2R,3R)-3-{4-[(2-methoxyethyl)(methyl)amino]benzamido}-2-methylpiperidin-1-yl]-3-[(1-methyl-1H-pyrazol-4-yl)amino]pyrazine-2-carboxamide]	100 to 1000	100 to 1000
C[C@@H]1[C@H](NC(=O)c2ccc(C(C)(C)F)cc2)CCCN1c1cnc(C(N)=O)c(Nc2cnn(C)c2)n1 [Example D-251, 5-[(2R,3R)-3-[4-(2-fluoropropan-2-yl)benzamido]-2-methylpiperidin-1-yl]-3-[(1-methyl-1H-pyrazol-4-yl)amino]pyrazine-2-carboxamide]	1000 to 10000	1000 to 10000
C[C@@H]1[C@H](NC(=O)c2cc(C3CC3)n[nH]2)CCCN1c1cnc(C(N)=O)c(Nc2cnn(C)c2)n1 [Example D-252, 5-[(2R,3R)-3-(3-cyclopropyl-1H-pyrazole-5-amido)-2-methylpiperidin-1-yl]-3-[(1-methyl-1H-pyrazol-4-yl)amino]pyrazine-2-carboxamide]	100 to 1000	100 to 1000
C[C@@H]1[C@H](NC(=O)c2cc(C3CC3)n(C)n2)CCCN1c1cnc(C(N)=O)c(Nc2cnn(C)c2)n1 [Example D-253, 5-[(2R,3R)-3-(5-cyclopropyl-1-methyl-1H-pyrazole-3-amido)-2-methylpiperidin-1-yl]-3-[(1-methyl-1H-pyrazol-4-yl)amino]pyrazine-2-carboxamide]	100 to 1000	100 to 1000
C[C@@H]1[C@H](NC(=O)c2ccc3c(cnn3C)c2)CCCN1c1cnc(C(N)=O)c(Nc2cnn(C)c2)n1 [Example D-254, N-[(2R,3R)-1-{5-carbamoyl-6-[(1-methyl-1H-pyrazol-4-yl)amino]pyrazin-2-yl}-2-methylpiperidin-3-yl]-1-methyl-1H-indazole-5-carboxamide]	1000 to 10000	1000 to 10000
CC(C)n1nnc2cc(C(=O)N[C@@H]3CCCN(c4cnc(C(N)=O)c(Nc5cnn(C)c5)n4)[C@@H]3C)ccc21 [Example D-255, N-[(2R,3R)-1-{5-carbamoyl-6-[(1-methyl-i H-pyrazol-4-yl)amino]pyrazin-2-yl}-2-methylpiperidin-3-yl]-1-(propan-2-yl)-1H-1,2,3-benzotriazole-5-carboxamide]	100 to 1000	1000 to 10000
C[C@@H]1[C@H](NC(=O)c2coc(C3CC3)n2)CCCN1c1cnc(C(N)=O)c(Nc2cnn(C)c2)n1 [Example D-257, 5-[(2R,3R)-3-(2-cyclopropyl-1,3-oxazole-4-amido)-2-methylpiperidin-1-yl]-3-[(1-methyl-1H-pyrazol-4-yl)amino]pyrazine-2-carboxamide]	100 to 1000	100 to 1000
C[C@@H]1[C@H](NC(=O)c2ccc3c(c2)CCC(C)(C)O3)CCCN1c1cnc(C(N)=O)c(Nc2cnn(C)c2)n1 [Example D-258, 5-[(2R,3R)-3-(2,2-dimethyl-3,4-dihydro-2H-1-benzopyran-6-amido)-2-methylpiperidin-1-yl]-3-[(1-methyl-1H-pyrazol-4-yl)amino]pyrazine-2-carboxamide]	1000 to 10000	1000 to 10000
C[C@@H]1[C@H](NC(=O)c2ccc3cnn(C)c3c2)CCCN1c1cnc(C(N)=O)c(Nc2cnn(C)c2)n1 [Example D-259, N-[(2R,3R)-1-{5-carbamoyl-6-[(1-methyl-1H-pyrazol-4-yl)amino]pyrazin-2-yl}-2-methylpiperidin-3-yl]-1-methyl-1H-indazole-6-carboxamide]	1000 to 10000	1000 to 10000
C[C@@H]1[C@H](NC(=O)c2ccc(C3(CO)CC3)cc2)CCCN1c1cnc(C(N)=O)c(Nc2cnn(C)c2)n1 [Example D-260, 5-[(2R,3R)-3-{4-[1-(hydroxymethyl)cyclopropyl]benzamido}-2-methylpiperidin-1-yl]-3-[(1-methyl-1H-pyrazol-4-yl)amino]pyrazine-2-carboxamide]	1000 to 10000	1000 to 10000
Cc1nc2cc(C(=O)N[C@@H]3CCCN(c4cnc(C(N)=O)c(Nc5cnn(C)c5)n4)[C@@H]3C)ccc2[nH]1 [Example D-261, N-[(2R,3R)-1-{5-carbamoyl-6-[(1-methyl-1H-pyrazol-4-yl)amino]pyrazin-2-yl}-2-methylpiperidin-3-yl]-2-methyl-1H-1,3-benzodiazole-5-carboxamide]	1000 to 10000	100 to 1000
C[C@@H]1[C@H](NC(=O)c2ccc3[nH]cnc3c2)CCCN1c1cnc(C(N)=O)c(Nc2cnn(C)c2)n1 [Example D-262, N-[(2R,3R)-1-{5-carbamoyl-6-[(1-methyl-1H-pyrazol-4-yl)amino]pyrazin-2-yl}-2-methylpiperidin-3-yl]-1H-1,3-benzodiazole-5-carboxamide]	1000 to 10000	1000 to 10000
C[C@@H]1[C@H](NC(=O)c2cc3n(n2)CCC3)CCCN1c1cnc(C(N)=O)c(Nc2cnn(C)c2)n1 [Example D-263, 3-[(1-methyl-1H-pyrazol-4-yl)amino]-5-[(2R,3R)-2-methyl-3-{4H,5H,6H-pyrrolo[1,2-b]pyrazole-2-amido}piperidin-1-yl]pyrazine-2-carboxamide]	1000 to 10000	100 to 1000
C[C@@H]1[C@H](NC(=O)c2c[nH]c(C3CC3)n2)CCCN1c1cnc(C(N)=O)c(Nc2cnn(C)c2)n1 [Example D-264, 5-[(2R,3R)-3-(2-cyclopropyl-1H-imidazole-4-amido)-2-methylpiperidin-1-yl]-3-[(1-methyl-1H-pyrazol-4-yl)amino]pyrazine-2-carboxamide]	1000 to 10000	100 to 1000
C[C@@H]1[C@H](NC(=O)c2ccc3nccn3c2)CCCN1c1cnc(C(N)=O)c(Nc2cnn(C)c2)n1 [Example D-266, 5-[(2R,3R)-3-(imidazo[1,2-a]pyridine-6-amido)-2-methylpiperidin-1-yl]-3-[(1-methyl-1H-pyrazol-4-yl)amino]pyrazine-2-carboxamide]	1000 to 10000	1000 to 10000
